According to ChEMBL document CHEMBL5365521, “Discovery of the Potent and Selective Inhaled Janus Kinase 1 Inhibitor AZD4604 and Its Preclinical Characterization” (J Med Chem, 2023):
≈ marks a conversion by molar mass, not a printed value. Calls of active or inactive are those of the source. No cut-off for these calls is given here.

Legend:
[1] = Metabolic stability in human hepatocyte assessed as intrinsic clearance measured per 10^6 cells; format: ADME, cell-based; conditions: hepatocytes, read-out: CLH
[2] = Metabolic stability in rat hepatocyte assessed as intrinsic clearance measured per 10^6 cells; format: ADME, cell-based; conditions: hepatocytes, read-out: CLH
[3] = Distribution coefficient between 1-Octanol and aqueous phosphate buffer, logD of the compound at pH 7.4 by shake-flask method; format: physicochemical; conditions: octanol/water
[4] = Solubility in phosphate buffer at pH 7.4; format: physicochemical
[5] = Plasma protein binding in human assessed as free fraction; format: ADME, cell-free
[6] = Inhibition of JAK/STAT signaling pathway in human U-937 cells assessed as inhibition of IL-4 stimulated STAT6 phosphorylation; format: cell-based
[7] = Thermodynamic solubility of the compound in phosphate buffer at pH 7.4 measured after 24 hrs by HPLC-MS analysis; format: physicochemical; conditions: read-out: Therm_solubility
[8] = Apparent permeability of compound across apical to basolateral side in human Caco-2 cells at pH 7.4; format: ADME, cell-based; conditions: Caco-2, pH 7.4
[9] = Volume of distribution at steady state in Han Wistar rat at 0.5 mg/kg, iv; format: ADME, organism-based; conditions: in vivo, read-out: Vdss
[10] = Drug uptake in lung of rat at 0.020 micromol/kg, IT; format: ADME, tissue-based; conditions: in vivo, other, dose 0.02 µmol/kg
[11] = AUC(0 to 24 hrs) in rat at 0.020 micromol/kg, IT; format: ADME; parameters: dose 0.02 µmol/kg, route it; conditions: in vivo, 0.02 µmol/kg
[12] = Drug uptake in lung of rat at 0.06 to 24.79 microg/kg via inhalation measured upto 24 hrs by LC-MS/MS analysis; format: ADME, tissue-based; conditions: in vivo, inhaled_or_intranasal, dose 0.06-24.79 µg/kg
[13] = target: T1, Tyrosine-protein kinase JAK1 (Homo sapiens, UniProt P23458); assay: Inhibition of GST-tagged human recombinant JAK1 (866 to 1154 residues) expressed in insect cells
[14] = target: T2, Tyrosine-protein kinase JAK3 (Homo sapiens, UniProt P52333); assay: Inhibition of GST-tagged human recombinant JAK3 (781 to 1124 residues) expressed in insect cells
T2 sequence (P52333 whole entry): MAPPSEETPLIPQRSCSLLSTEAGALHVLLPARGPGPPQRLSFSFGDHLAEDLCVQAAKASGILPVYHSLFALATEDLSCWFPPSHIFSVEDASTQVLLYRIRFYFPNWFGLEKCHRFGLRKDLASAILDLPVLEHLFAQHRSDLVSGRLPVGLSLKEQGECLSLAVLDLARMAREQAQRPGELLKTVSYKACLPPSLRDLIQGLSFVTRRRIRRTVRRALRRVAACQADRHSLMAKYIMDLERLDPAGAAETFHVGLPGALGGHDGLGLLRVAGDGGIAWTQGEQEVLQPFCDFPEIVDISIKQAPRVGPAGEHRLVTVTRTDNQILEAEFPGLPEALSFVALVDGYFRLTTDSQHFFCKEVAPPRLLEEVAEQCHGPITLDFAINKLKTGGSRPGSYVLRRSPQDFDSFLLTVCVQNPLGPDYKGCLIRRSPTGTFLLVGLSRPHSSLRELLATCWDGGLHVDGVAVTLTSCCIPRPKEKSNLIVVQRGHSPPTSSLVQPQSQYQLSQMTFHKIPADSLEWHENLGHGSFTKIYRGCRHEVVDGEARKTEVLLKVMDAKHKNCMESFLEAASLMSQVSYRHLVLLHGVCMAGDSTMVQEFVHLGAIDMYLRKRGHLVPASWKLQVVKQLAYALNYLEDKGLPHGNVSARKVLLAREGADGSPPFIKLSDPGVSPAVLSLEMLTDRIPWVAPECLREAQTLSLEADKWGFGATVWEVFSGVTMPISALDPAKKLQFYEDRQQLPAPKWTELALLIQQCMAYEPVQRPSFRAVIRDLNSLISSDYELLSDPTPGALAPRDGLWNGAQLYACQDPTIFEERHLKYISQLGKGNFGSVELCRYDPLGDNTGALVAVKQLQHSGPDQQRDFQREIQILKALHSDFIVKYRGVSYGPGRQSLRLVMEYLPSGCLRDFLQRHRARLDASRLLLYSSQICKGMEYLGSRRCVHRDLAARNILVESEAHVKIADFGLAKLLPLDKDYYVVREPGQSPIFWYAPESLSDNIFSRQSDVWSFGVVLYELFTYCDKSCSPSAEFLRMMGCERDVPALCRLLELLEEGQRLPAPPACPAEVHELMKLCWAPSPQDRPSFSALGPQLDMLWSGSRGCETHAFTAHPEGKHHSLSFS

[15] = target: Non-receptor tyrosine-protein kinase TYK2 (Homo sapiens, UniProt P29597); assay: Inhibition of GST-tagged human recombinant TYK2 (833 to 1187 residues) expressed in insect cells
[16] = Metabolic stability in human liver microsomes assessed as intrinsic clearance; format: ADME, Microsome; conditions: read-out: CLH
[17] = Terminal half life in Han Wistar rat at 1 mg/kg, po; format: ADME, organism-based; conditions: in vivo, read-out: beta t1/2 (converted)
[18] = Volume of distribution at steady state in Han Wistar rat at 1 mg/kg, po or 0.5 mg/kg, iv; format: ADME, organism-based; conditions: in vivo
[19] = Oral bioavailability in Han Wistar rat at 1 mg/kg; format: ADME, organism-based; conditions: in vivo
[20] = Toxicity in human CD4+ T cell assessed as reduction in cell viability measured after 5 days by eFluor780 staining based flow cytometry analysis; conditions: 120 h, dose 1-10000 nM, time 5 day
CD4+ T cell = assay: Antiinflammatory activity in human CD4+ T cell assessed as reduction in CD25 expression measured after 5 days by eFluor780 staining based flow cytometry analysis; format: functional; conditions: dose 1-10000 nM, time 5.0 day
Th1 cell = assay: Inhibition of human naive Th1 cell differentiation assessed as decrease in IFNg production measured after 5 days by MSD assay; format: functional, cell-based; conditions: dose 1-10000 nM, time 5.0 day
Th2 cell [21] = assay: Inhibition of human naive Th2 cell differentiation assessed as decrease in IL-4 production measured after 5 days by MSD assay; format: functional, cell-based; conditions: dose 1-10000 nM, time 5.0 day
Th17 = assay: Inhibition of human memory-derived Th17 cell differentiation assessed as decrease in IL-17 production measured after 5 days by MSD assay; format: functional, cell-based; conditions: time 5.0 day
Th2 cell [22] = assay: Inhibition of human naive Th2 cell differentiation assessed as decrease in IL-5 production measured after 5 days by MSD assay; format: functional, cell-based; conditions: time 5.0 day
Th2 cell [23] = assay: Inhibition of human naive Th2 cell differentiation assessed as decrease in IL-13 production measured after 5 days by MSD assay; format: functional, cell-based; conditions: time 5.0 day
[24] = Toxicity in human naive Th1 cell assessed as reduction in cell viability at 1 to 10000 nM; format: cell-based; conditions: 10 µM, dose 1-10000 nM
[25] = Toxicity in human naive Th2 cell assessed as reduction in cell viability at 1 to 10000 nM; format: cell-based; conditions: 10 µM, dose 1-10000 nM
[26] = Toxicity in human memory-derived Th17 cells assessed as reduction in cell viability at 1 to 10000 nM; format: cell-based; conditions: th17, 10 µM, dose 1-10000 nM
[27] = Inhibition of JAK/STAT signaling pathway in human CD4+ T cell assessed as inhibition of IL-4 stimulated STAT6 phosphorylation preincubated for 20 to 60 mins followed by IL-4 stimulation measured after 15 mins by flow cytometry analysis; format: cell-based
[28] = Inhibition of JAK/STAT signaling pathway in human CD14-positive cell monocytes isolated from human PBMC assessed as inhibition of IL-4 stimulated STAT6 phosphorylation preincubated for 20 to 60 mins followed by IL-4 stimulation measured after 15 mins by flow cytometry analysis; format: cell-based
[29] = Inhibition of JAK/STAT signaling pathway in human CD14-positive cell monocytes isolated from human PBMC assessed as inhibition of IL-13 stimulated STAT6 phosphorylation preincubated for 20 to 60 mins followed by IL-13 stimulation measured after 15 mins by flow cytometry analysis; format: cell-based
[30] = target: T1, Tyrosine-protein kinase JAK1; assay: Inhibition of JAK1 in human CD14-positive cell monocytes isolated from human PBMC assessed as reduction in dendritic cells development measured after 5 days by flow cytometry analysis; format: cell-based; conditions: dose 10-1000 nM, time 5.0 day
[31] = target: T1, Tyrosine-protein kinase JAK1; assay: Inhibition of JAK1 in human CD14-positive cell monocytes isolated from human PBMC assessed as reduction in mature dendritic phenotype by measuring CD14 expression level at 100 nM measured after 5 days by CD14 APC staining based flow cytometry analysis; conditions: time 5.0 day
[32] = target: T1, Tyrosine-protein kinase JAK1; assay: Inhibition of JAK1 in human CD14-positive cell monocytes isolated from human PBMC assessed as reduction in mature dendritic phenotype by measuring CD11c expression level at 100 nM measured after 5 days by CD11c PE-CF594 staining based flow cytometry analysis; conditions: time 5.0 day

T1 sequence (P23458 whole entry, the tested form may be a part): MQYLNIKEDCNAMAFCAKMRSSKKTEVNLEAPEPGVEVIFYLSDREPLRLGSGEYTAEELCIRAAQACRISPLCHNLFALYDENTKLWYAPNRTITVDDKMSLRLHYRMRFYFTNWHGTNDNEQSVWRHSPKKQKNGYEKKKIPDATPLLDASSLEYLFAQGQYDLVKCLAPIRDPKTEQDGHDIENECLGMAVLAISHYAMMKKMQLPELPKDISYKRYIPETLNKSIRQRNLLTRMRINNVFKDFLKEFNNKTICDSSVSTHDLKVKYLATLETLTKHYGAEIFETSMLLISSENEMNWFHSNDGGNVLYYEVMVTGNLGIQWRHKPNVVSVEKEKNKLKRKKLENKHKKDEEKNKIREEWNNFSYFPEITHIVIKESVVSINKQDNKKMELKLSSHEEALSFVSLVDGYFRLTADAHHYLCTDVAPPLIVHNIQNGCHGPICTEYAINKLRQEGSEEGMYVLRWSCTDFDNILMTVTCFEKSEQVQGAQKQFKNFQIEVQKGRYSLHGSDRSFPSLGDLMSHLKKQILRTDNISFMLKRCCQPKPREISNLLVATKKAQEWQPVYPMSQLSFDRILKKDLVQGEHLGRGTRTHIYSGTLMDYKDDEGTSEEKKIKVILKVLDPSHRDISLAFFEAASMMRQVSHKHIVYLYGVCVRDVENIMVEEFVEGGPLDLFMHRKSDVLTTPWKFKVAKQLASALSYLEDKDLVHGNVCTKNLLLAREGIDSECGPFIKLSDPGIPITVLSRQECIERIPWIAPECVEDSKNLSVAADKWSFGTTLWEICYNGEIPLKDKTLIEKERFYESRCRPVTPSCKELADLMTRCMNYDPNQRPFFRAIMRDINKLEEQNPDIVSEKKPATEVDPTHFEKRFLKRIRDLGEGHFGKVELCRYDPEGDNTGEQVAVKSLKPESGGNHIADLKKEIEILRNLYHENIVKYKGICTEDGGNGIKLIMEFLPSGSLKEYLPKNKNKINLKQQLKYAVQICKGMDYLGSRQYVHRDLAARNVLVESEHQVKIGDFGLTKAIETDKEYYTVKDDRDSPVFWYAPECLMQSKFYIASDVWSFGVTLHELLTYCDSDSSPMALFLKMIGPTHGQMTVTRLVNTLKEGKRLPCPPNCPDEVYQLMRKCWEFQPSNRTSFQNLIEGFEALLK
Non-receptor tyrosine-protein kinase TYK2, sequence (P29597 whole entry, the tested form may be a part): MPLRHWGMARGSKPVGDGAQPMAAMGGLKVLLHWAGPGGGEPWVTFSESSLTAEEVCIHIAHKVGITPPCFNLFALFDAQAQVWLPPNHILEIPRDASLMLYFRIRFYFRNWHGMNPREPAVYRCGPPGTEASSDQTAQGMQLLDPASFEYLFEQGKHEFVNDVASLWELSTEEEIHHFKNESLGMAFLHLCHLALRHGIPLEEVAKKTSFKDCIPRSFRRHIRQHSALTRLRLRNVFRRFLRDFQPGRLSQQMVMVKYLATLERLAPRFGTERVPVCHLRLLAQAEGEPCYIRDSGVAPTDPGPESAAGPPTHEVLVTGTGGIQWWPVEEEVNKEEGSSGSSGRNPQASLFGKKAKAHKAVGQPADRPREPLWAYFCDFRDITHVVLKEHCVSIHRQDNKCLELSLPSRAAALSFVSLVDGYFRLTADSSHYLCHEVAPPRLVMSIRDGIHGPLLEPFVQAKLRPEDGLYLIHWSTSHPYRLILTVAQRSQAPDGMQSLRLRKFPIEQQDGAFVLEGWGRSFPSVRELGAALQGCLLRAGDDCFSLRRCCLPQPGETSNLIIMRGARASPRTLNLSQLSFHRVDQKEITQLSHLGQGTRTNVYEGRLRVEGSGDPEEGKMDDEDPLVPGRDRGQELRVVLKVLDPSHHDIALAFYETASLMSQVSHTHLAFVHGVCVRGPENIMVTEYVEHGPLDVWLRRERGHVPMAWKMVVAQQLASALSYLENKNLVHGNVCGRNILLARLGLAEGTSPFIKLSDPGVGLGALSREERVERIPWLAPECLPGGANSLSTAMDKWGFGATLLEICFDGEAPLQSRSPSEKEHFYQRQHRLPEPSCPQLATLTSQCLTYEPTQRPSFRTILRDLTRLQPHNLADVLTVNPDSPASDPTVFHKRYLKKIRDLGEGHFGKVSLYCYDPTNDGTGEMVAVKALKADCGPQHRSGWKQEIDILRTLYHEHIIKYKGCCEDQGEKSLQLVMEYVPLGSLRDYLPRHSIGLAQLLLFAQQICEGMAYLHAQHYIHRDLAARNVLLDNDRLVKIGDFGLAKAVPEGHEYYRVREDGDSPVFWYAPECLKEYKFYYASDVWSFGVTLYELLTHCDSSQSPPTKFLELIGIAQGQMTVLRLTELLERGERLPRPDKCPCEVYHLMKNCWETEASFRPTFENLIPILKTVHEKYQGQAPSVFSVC

COC[C@H](C(=O)Nc1cccc2c(-c3nc(Nc4cccc(S(C)(=O)=O)c4F)ncc3F)c[nH]c12)N1CCN(C)CC1 [LONDAMOCITINIB]
hepatocyte CLint [1]: 1.3 µL/min/1e6 cells | hepatocyte CLint [2]: 6.9 µL/min/1e6 cells | logD [3]: 2.6 | solubility [4]: 6 µM (≈ 3.6 µg/mL) | fraction unbound [5]: 0.08 | IC50 [6]: 24 nM | solubility thermodynamic at 24 h [7]: 7 µM (≈ 4.2 µg/mL) | Papp A→B [8]: 2.7 ×10⁻⁶ cm/s | Vd [9]: 11 L/kg | Drug uptake [10]: Active | AUC(0-t) [11]: 8.6 µM·h | Drug uptake [12]: Active | IC50 [13]: 0.54 nM | IC50 [14]: > 10 µM | IC50 [15]: 657 nM | microsomal CLint [16]: 25 µL/min/mg | half-life [17]: 282 min | Vdss [18]: 9.9 L/kg | bioavailability [19]: 44% | Activity [20]: Dose-Dependent Effect | Activity (CD4+ T cell): Dose-Dependent Effect | inhibition (Th1 cell): Dose-Dependent Effect | inhibition (Th2 cell [21]): Dose-Dependent Effect | inhibition (Th17): Dose-Dependent Effect | inhibition (Th2 cell [22]): Dose-Dependent Effect | inhibition (Th2 cell [23]): Dose-Dependent Effect | Activity [24]: Non-Toxic | Activity [25]: Non-Toxic | Activity [26]: Non-Toxic | IC50 [27]: 21 nM | IC50 [28]: 20 nM | IC50 [29]: 28 nM | inhibition [30]: Dose-Dependent Effect | Activity [31]: Active | Activity [32]: Active
